According to patent US10561638B2, “Methods for treating dependence” (Biotie Therapies, Inc., priority 2007, dated 2020):
Entries after “also recorded” stand apart in the source; their conditions may differ.

Key:
[1] = test system: left ventricle norepinephrine and dopamine levels; test: Left ventricle catecholamines after two i.v. doses; type: in vivo, Sprague-Dawley rats; details: 15 mg/kg iv x2, left ventricle
Description: The purpose of this study was to determine the effects of intravenous administration of nepicastat (hereafter referred to as nepicastat) on the levels of dopamine and norepinephrine in the left ventricle in Sprague-Dawley rats. Animals received two intravenous (iv) administrations, 12 hours apart, of either vehicle (75% propylene glycol+25% DMSO; 1.0 ml/kg) or 15 mg/kg of nepicastat. Tissue norepinephrine and dopamine levels were measured six hours after the last compound administration.
Sixteen to 17 week old male Sprague-Dawley rats, weighing 300-400 grams, were allowed food and water ad libitum. Animals were weighed and randomly assigned, the afternoon before the study, to one of the following treatment groups (n=10 per group): vehicle (1.0 ml/kg) or nepicastat at 15 mg/kg.
Each rat was dosed iv in the tail vein the afternoon before harvest. The dosing was repeated 12 hours later the following morning. Six hours after the final administration rats were anesthetized with halothane, decapitated, and the left ventricle was rapidly harvested and weighed. The ventricle was placed in 1.0 ml iced 0.4 M perchloric acid. Tissues were immediately frozen in liquid nitrogen and stored at −70° C. Tissue dopamine and norepinephrine concentrations were assayed by high performance liquid chromatography using electrochemical detection.
A one-way analysis of variance (ANOVA) with a main effect for treatment was performed for norepinephrine. A Kruskal-Wallis was performed for dopamine and their ratio primarily due to heterogeneous variances among treatment groups. Subsequent pairwise comparisons between nepicastat treated rats and vehicle were performed using Fisher's LSD test. A Bonferroni adjustment was performed on all p-values to ensure an overall experiment-wise type 1 error rate of 5%.

[2] = Pharmacokinetics and brain levels in rats; type: in vivo
Description: Male rats (Crl: CD BR Vaf+) weighing 180-220 g were fasted overnight before dosing and until 4 hr after dosing. Doses were formulated in water containing 2% 1-hydroxypropyl methylcellulose (50 centipoises viscosity), 1% benzyl alcohol, and 0.6% Tween 80 (all obtained from Sigma Chemical Company). Concentration of drug in the dose solutions was 5, 15, and 50 mg/ml for the 10, 30, and 100 mg/kg doses, respectively, and was verified by liquid chromatography (LC). The 5 mg/ml dose was a clear solution and the higher concentrations were a translucent suspension. Dose volumes were 2.0 ml/kg. At various times after dosing, samples of blood were obtained by cardiac puncture with heparinized syringes, and plasma was prepared by centrifugation. Brains of rats were surgically excised, and all samples were frozen at −20° C. until analysis.
Aliquots of plasma (0.05 or 0.5 ml) were mixed with internal standard (50 μl of methanol containing 5 μg/ml a monofluoro analog of nepicastat, and 5 mg/ml dithiothreitol). […] Concentrations of analytes were determined from a standard curve generated from the analysis of plasma from untreated rats fortified with known concentrations of analyte. Plasma concentration data are expressed as μg (free base) per ml. […]
Following addition of 100 μl of methanol to the aqueous phase (to disperse any emulsion), 100 μl aliquots were assayed by LC as described for plasma. Level in brain are expressed as μg (free base) per g of brain tissue.
Pharmacokinetic parameters were calculated from mean plasma concentrations. Plasma half-life (T1/2) was calculated as 0.693/β, where β is the elimination rate constant determined by linear regression of the log plasma concentration vs. time data within the terminal linear portion of the data. Areas under the plasma concentration vs. time curve (AUC) from zero to the time of the last quantifiable plasma concentrations were calculated by the trapezoidal rule. AUC from zero to infinity (AUCtotal 1 was calculated as: AUCtotal=AUC(0−Clast)+Clast/β where Clast is the last quantifiable plasma concentration.

## Cl.NCc1c[nH]c(=S)n1[C@H]1CCc2c(F)cc(F)cc2C1 [nepicastat, (S)-5-Aminomethyl-1-(5,7-difluoro-1,2,3,4-tetrahydronaphth-2-yl)-2,3-dihydro-2-thioxo-1H-imidazole hydrochloride]
[1]
  decrease in norepinephrine levels: 51%
  increase in dopamine levels: 472%
  increase in dopamine/norepinephrine ratio: 1117%
[2]; 30 mg/kg oral
  plasma AUCtotal, higher in female than in male rats: 77%
[2]; male rats, 10 mg/kg oral, from 2 hr onward, hydrochloride, 10 mg/kg
  brain vs plasma concentrations: concentrations of nepicastat in brain exceeded those in plasma; also recorded: levels of nepicastat in brain were greater than in plasma
[2]; male rats, 10-100 mg/kg
  relationship between AUCtotal and dose: linear
